In brackets after ≈: the same amount, converted by molar mass. Like-named read-outs stand apart in the source and are kept apart here.
What was measured:
[1] = system: blood pressure of the carotid; test: Hypotensive effect (carotid blood pressure, anesthetized rat); format: in vivo; conditions: chloralose-anesthetized Wistar male rat, injected via catheter connected to femoral artery; read-out: Hypotensive effect ED25 (dose reducing blood pressure by 25 mmHg)
Procedure: A catheter was inserted to a carotid of the Wistar male rat under chloralose anesthesia. Another end of the catheter was connected to a polygraph with a pressure-transducer to detect a blood pressure of the carotid. The compound was injected via catheter connected to a femoral artery. The dose of the compound which may reduce the blood pressure in an amount of 25 mmHg was designated as ED25.

gastric acid secretion [2] = test: Inhibiting effect of gastric acid secretion, pylorus-ligated rat (Shay); format: in vivo; conditions: pylorus ligation, injected into duodenum, 5 hours
Procedure: (§1) Inhibiting effect of gastric acid secretion
Under anesthesia by ether, the abdomen of the rat was incised in its median and a pylorus was ligated with silk thread according to Shay (Gastroenterology 5, 43 (1945)). Simultaneously, the compound was injected into a duodenum of the rat and then the incision was closed.
Five hours later, the median-incision of the abdomen was again performed and the esophargus was ligated and then the whole stomach was removed.
The stomach was cut along a greater curvature and the contents thereof was transferred into a graduated centrifuge tube. After centrifugation at 3,000 rpm for 10 min., a volume of a gastric juice was measured and a part of its supernatant was titrated to pH 7 with 0.1N NaOH using a pH-stat (Radio meter).
The mean dose of the compounds which may reduce the volume of gastric juice (ml) and acidity (mEq/ml) of a group of five animals to 50% of that of the controls were designated respectively as ED50.

corpus of stomach = test: Gastric cytoprotection effect (lesion length / ulcer index after oral 0.2N NaOH); format: in vivo; conditions: 1 h, 30 min before oral 0.2N NaOH, lesion measured one hour later, read-out: Gastric cytoprotection effect ED50 (dose reducing the sore to 50% of control)
Text: Gastric cytoprotection effect
Gastric cytoprotection effect was studied according to the method by A. Robert (Gastroenterology, 77(3), 443, (1979)). Thirty min. after oral administration of the compound according to the invention, 0.2N NaOH was orally applied to the animals.
One hour later, the animals were killed under anesthesia by chloroform. The stomach was removed and fixed in a solution of 5% formalin. After fixation, the stomach was cut along the greater curvature. A total length of the lesion appearing on the corpus of stomach was then measured and served as an ulcer index.
The dose of the compound which may reduce the sore to 50% of that of the control was designated as ED50.
The gastric cytoprotection effects of the compounds according to the invention, which is thus represented by ED50, are summarized in Table 1.

gastric acid secretion [3] = test: Inhibiting effect of gastric acid secretion, perfused stomach, pentagastrin-stimulated (Ghosh & Schild); format: in vivo, male SD rat; conditions: urethane-anesthetized SD rat, pentagastrin 0.05 μg/kg/min, injected through femoral vein; ratio of area index to that of PGE2
Procedure: as §1
A male SD rat was incised in the abdomen under anesthesia by urethane and the lumen of a stomach was perfused with a physiolosical saline solution through a double-cannula inserted into a lumen of the stomach. A pH of a draining gastric acid was monitored using a pH-meter (M. Ghosh, H. Schild, Br. J. Pharmacol. 13, 54 (1958)). The secretion of gastric acid was stimulated by a continuous infusion of the pentagastrin at a rate of 0.05 μg/kg/min. When the pH of gastric acid became stable value of about 4, the compound was injected through a femoral vein. As an index of the inhibiting effect of gastric acid secretion by the compound was calculated from the area surrounded by the curve drawn by the time course of the pH of gastric acid, from the point increase by the injection of the compound and to the point it came back to baseline. The index thus obtained was compared to that of PGE2 and a ratio therebetween was shown in Table 3, as a relative effect of the compound.

platelet aggregation = test: Inhibiting effect of platelet aggregation (ADP-induced, human platelet-rich plasma); format: cell-based; conditions: human PRP, compound added one minute before ADP
Procedure: Inhibiting effect of platelet aggregation
The blood taken from a human median cubital vein was centrifuged at 800 rpm for 10 min. and a supernatant thereof was used as a platelet-rich plasma (PRP). An aliquot of PRP thus obtained was put into a small tube, to which […] (ADP) was added to induce platelet aggregation. The extent of aggregation was determined by detecting a change in turbidity of the aliquot by an apparatus for measuring platelet aggregation (Rika-Denki, Tokyo). The compound was added one minute before the addition of ADP. The concentration of the compound which may reduce the platelet aggregation, 50% of the control was designated as IC50.

[4] = acidity (mEq/ml) to 50% of controls, read-out: Inhibiting effect of gastric acid secretion ED50, Acidity
[5] = volume (ml) to 50% of controls, read-out: Inhibiting effect of gastric acid secretion ED50, Volume of the gastric juice

| SMILES | IC50 (platelet aggregation) [ng/mL] | ED (25 mmHg) [1] [µg/kg] | ED50 (gastric acid secretion [2]; [4]) [µg/kg] | ED50 (gastric acid secretion [2]; [5]) [µg/kg] | ED50 (corpus of stomach) [µg/kg] | Inhibiting effect of gastric acid secretion, Relative effect (PGE2 = 1) (gastric acid secretion [3]) |
| --- | --- | --- | --- | --- | --- | --- |
| CCCCCCC(C)(C)[C@H](O)/C=C/[C@@H]1[C@H]2c3cccc(OCC(=O)O)c3O[C@H]2C[C@H]1O (relative stereo) [Compound 188, 16,16-Dimethyl-20a,20b-dihomo-2,5,6,7-tetranor-4-oxa-4,8-inter-m-phenylene PGI2] | 6.9 (≈ 16 nM) | 1.5 | – | – | 2.8 | 23 |
| CCCCCCCC(C)(C)[C@H](O)/C=C/[C@@H]1[C@H]2c3cccc(OCC(=O)O)c3O[C@H]2C[C@H]1O (relative stereo) [Compound 192, 16,16-Dimethyl-20a,20b,20c-trihomo-2,5,6,7-tetranor-4-oxa-4,8-inter-m-phenylene PGI2] | 8 (≈ 17.9 nM) | 0.59 | – | – | 3.9 | 0.7 |
| CCCCCC(C)(O)/C=C/[C@@H]1[C@H]2c3cccc(OCC(=O)O)c3O[C@H]2C[C@H]1O (relative stereo) [Compound 210, 15-Methyl-2,5,6,7-tetranor-4-oxa-4,8-inter-m-phenylene PGI2] | 30 (≈ 76.8 nM) | 0.89 | – | – | 109 | 13 |
| O=C(O)COc1cccc2c1O[C@H]1C[C@@H](O)[C@H](/C=C/[C@@H](O)c3ccccc3)[C@@H]21 (relative stereo) [Compound 256, 15-phenyl-2,5,6,7,16,17,18,19,20-nonanor-4-oxa-4,8-inter-m-phenylene PGI2] | 0.088 (≈ 0.23 nM) | 0.1 | 110 | 44 | 3.2 | 7.8 |
| O=C(O)COc1cccc2c1O[C@H]1C[C@@H](O)[C@H](/C=C/[C@@H](O)CCc3ccccc3)[C@@H]21 (relative stereo) [Compound 263, 17-phenyl-2,5,6,7,18,19,20-heptanor-4-oxa-4,8-inter-m-phenylene PGI2] | 3.4 (≈ 8.28 nM) | 0.23 | 1300 | 580 | 13.7 | 42 |
| Cc1ccccc1[C@H](O)/C=C/[C@@H]1[C@H]2c3cccc(OCC(=O)O)c3O[C@H]2C[C@H]1O (relative stereo) [Compound 266, 15-(o-methylphenyl)-2,5,6,7,16,17,18,19,20-nonanor-4-oxa-4,8-inter-m-phenylene PGI2] | 2.3 (≈ 5.8 nM) | 0.32 | – | – | 31.2 | 7.2 |
| Cc1ccc([C@H](O)/C=C/[C@@H]2[C@H]3c4cccc(OCC(=O)O)c4O[C@H]3C[C@H]2O)cc1 (relative stereo) [Compound 270, 15-(p-methylphenyl)-2,5,6,7,16,17,18,19,20-nonanor-4-oxa-4,8-inter-m-phenylene PGI2] | 1.6 (≈ 4.04 nM) | 0.12 | – | – | 25.5 | 16 |
| CCOCC(C)(C)[C@H](O)/C=C/[C@@H]1[C@H]2c3cccc(OCC(=O)O)c3O[C@H]2C[C@H]1O (relative stereo) [Compound 305, 16,16-Dimethyl-2,5,6,7-tetranor-4,18-dioxa-4,8-inter-m-phenylene PGI2] | 90 (≈ 221 nM) | 0.55 | – | – | 13.1 | 99 |

Now from value to compound, other results behind:

| IC50 (platelet aggregation) [ng/mL] | SMILES | ED (25 mmHg) [1] [µg/kg] | ED50 (gastric acid secretion [2]; [4]) [µg/kg] | ED50 (gastric acid secretion [2]; [5]) [µg/kg] | ED50 (corpus of stomach) [µg/kg] | Inhibiting effect of gastric acid secretion, Relative effect (PGE2 = 1) (gastric acid secretion [3]) |
| --- | --- | --- | --- | --- | --- | --- |
| 0.56 (≈ 1.49 nM) | CCCCC[C@H](O)/C=C/[C@@H]1[C@H]2c3cccc(OCC(=O)O)c3O[C@H]2C[C@H]1O (relative stereo) [Compound 156, 2,5,6,7-Tetranor-4-oxa-4,8-inter-m-phenylene PGI2] | 0.46 | 2330 | 330 | 11.3 | 39 |
| 0.37 (≈ 0.915 nM) | CCCC(C)(C)C[C@H](O)/C=C/[C@@H]1[C@H]2c3cccc(OCC(=O)O)c3O[C@H]2C[C@H]1O (relative stereo) [Compound 200, 17,17-Dimethyl-2,5,6,7-tetranor-4-oxa-4,8-inter-m-phenylene PGI2] | 0.16 | – | – | 3.6 | 3.0 |
| 0.47 (≈ 1.2 nM) | CCCCC(C)[C@H](O)/C=C/[C@@H]1[C@H]2c3cccc(OCC(=O)O)c3O[C@H]2C[C@H]1O (relative stereo) [Compound 208, 16-Methyl-2,5,6,7-tetranor-4-oxa-4,8-inter-m-phenylene PGI2] | 0.074 | 270 | 140 | 0.92 | 45 |
| 0.19 (≈ 0.507 nM) | O=C(O)COc1cccc2c1O[C@H]1C[C@@H](O)[C@H](/C=C/[C@@H](O)C3CCCC3)[C@@H]21 (relative stereo) [Compound 230, 15-cyclopentyl-2,5,6,7,16,17,18,19,20-nonanor-4-oxa-4,8-inter-m-phenylene PGI2] | 0.094 | 880 | 330 | 9.74 | 1.4 |
| 0.26 (≈ 0.669 nM) | O=C(O)COc1cccc2c1O[C@H]1C[C@@H](O)[C@H](/C=C/[C@@H](O)C3CCCCC3)[C@@H]21 (relative stereo) [Compound 234, 15-cyclohexyl-2,5,6,7,16,17,18,19,20-nonanor-4-oxa-4,8-inter-m-phenylene PGI2] | 0.34 | 880 | 86 | 12.4 | 4.1 |
| 0.24 (≈ 0.618 nM) | O=C(O)COc1cccc2c1O[C@H]1C[C@@H](O)[C@H](/C=C/[C@@H](O)CC3CCCC3)[C@@H]21 (relative stereo) [Compound 238, 16-cyclopentyl-2,5,6,7,17,18,19,20-octanor-4-oxa-4,8-inter-m-phenylene PGI2] | 0.14 | – | – | 4.9 | 11 |
| 12 (≈ 29.8 nM) | O=C(O)COc1cccc2c1O[C@H]1C[C@@H](O)[C@H](/C=C/[C@@H](O)CC3CCCCC3)[C@@H]21 (relative stereo) [Compound 241, 16-cyclohexyl-2,5,6,7,17,18,19,20-octanor-4-oxa-4,8-inter-m-phenylene PGI2] | 0.083 | 2800 | 1800 | 8.17 | 2.1 |
| 28 (≈ 67.2 nM) | O=C(O)COc1cccc2c1O[C@H]1C[C@@H](O)[C@H](/C=C/[C@@H](O)CCC3CCCCC3)[C@@H]21 (relative stereo) [Compound 244, 17-cyclohexyl-2,5,6,7,18,19,20-heptanor-4-oxa-4,8-inter-m-phenylene PGI2] | 0.47 | > 10000 | 3500 | 8.52 | 3.9 |
| 3.5 (≈ 8.83 nM) | O=C(O)COc1cccc2c1O[C@H]1C[C@@H](O)[C@H](/C=C/[C@@H](O)Cc3ccccc3)[C@@H]21 (relative stereo) [Compound 260, 16-phenyl-2,5,6,7,17,18,19,20-octanor-4-oxa-4,8-inter-m-phenylene PGI2] | 0.98 | 4500 | 5200 | 51.4 | 13 |

Source: patent US4775692A, “2,5,6,7-tetranor-4,8-inter-m-phenylene PGI2 derivatives” (Toray Industries, Inc., priority 1986, dated 1988)
